# Target: Recombinant human ULK1 (1-649) (Homo sapiens (Human), UniProt O75385)
# Assay: ULK1 ADP Glo kinase activity assay, new method (ULKtide peptide substrate)
# Conditions: 25° C., 40 minutes, read-out: ULK1 biochemical IC50
# Procedure, shortened: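 GST-tagged human ULK1 (1-649) from Sf9 cells was reacted with ULKtide peptide and ATP for 40 min at 25 °C across 12-point compound dilutions from 10 μM. ADP formed was quantified by ADP-Glo luminescence; IC50 came from four-parameter fits relative to DMSO controls.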
# Sequence of Recombinant human ULK1 (1-649) (O75385 1-649): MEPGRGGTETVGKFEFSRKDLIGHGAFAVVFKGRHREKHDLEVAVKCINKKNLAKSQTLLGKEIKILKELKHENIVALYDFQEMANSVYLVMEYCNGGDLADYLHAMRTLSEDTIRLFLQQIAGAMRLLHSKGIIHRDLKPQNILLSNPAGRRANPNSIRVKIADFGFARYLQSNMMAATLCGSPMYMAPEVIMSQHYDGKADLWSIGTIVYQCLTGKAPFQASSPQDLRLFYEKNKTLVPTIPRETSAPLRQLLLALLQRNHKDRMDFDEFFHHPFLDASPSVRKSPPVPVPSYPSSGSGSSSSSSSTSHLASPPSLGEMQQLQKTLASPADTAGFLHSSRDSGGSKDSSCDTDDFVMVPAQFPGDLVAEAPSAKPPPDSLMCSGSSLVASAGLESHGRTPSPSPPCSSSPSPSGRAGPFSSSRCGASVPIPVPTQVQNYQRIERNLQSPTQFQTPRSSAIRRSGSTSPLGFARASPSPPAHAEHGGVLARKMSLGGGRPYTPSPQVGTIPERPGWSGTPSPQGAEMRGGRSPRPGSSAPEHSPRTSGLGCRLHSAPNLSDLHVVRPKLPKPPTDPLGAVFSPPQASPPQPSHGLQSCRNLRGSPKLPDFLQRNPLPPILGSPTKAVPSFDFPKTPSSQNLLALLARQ
row,IC50,SMILES
1,≤ 5 nM,"CCc1cc(N2C[C@@H]3C[C@H]2CN3)ccc1Nc1ncc(C(F)(F)F)c(-c2cc3c(s2)C(=O)N(C2CC2)CCS3(=O)=O)n1 [Example 319, 7-(2-((4-((1S,4S)-2,5-diazabicyclo[2.2.1]heptan-2-yl)-2-ethylphenyl)amino)-5-(trifluoromethyl)pyrimidin-4-yl)-4-cyclopropyl-3,4-dihydrothieno[2,3-f][1,4]thiazepin-5(2H)-one 1,1-dioxide]"
2,≤ 5 nM,"O=C1c2sc(-c3nc(Nc4ccc(N5CCN[C@@H](CO)C5)cc4C4CC4)ncc3C(F)(F)F)cc2S(=O)(=O)CCN1C1COC1 [Example 358, (R)-7-(2-((2-cyclopropyl-4-(3-(hydroxymethyl)piperazin-1-yl)phenyl)amino)-5-(trifluoromethyl)pyrimidin-4-yl)-4-(oxetan-3-yl)-3,4-dihydrothieno[2,3-f][1,4]thiazepin-5(2H)-one 1,1-dioxide]"
3,≤ 5 nM,"CCc1cc(N2C[C@@H](C)N[C@@H](C)C2)ccc1Nc1ncc(C(F)(F)F)c(-c2cc3c(s2)C(=O)N(C2COC2)CCS3(=O)=O)n1 [Example 368, 7-(2-((4-((3S,5R)-3,5-dimethylpiperazin-1-yl)-2-ethylphenyl)amino)-5-(trifluoromethyl)pyrimidin-4-yl)-4-(oxetan-3-yl)-3,4-dihydrothieno[2,3-f][1,4]thiazepin-5(2H)-one 1,1-dioxide]"
4,≤ 5 nM,"CN1CCS(=O)(=O)c2cc(-c3nc(Nc4cn(C5CCNCC5)nc4C4CC4)ncc3C(F)(F)F)sc2C1=O [Example 141, 7-(2-((3-cyclopropyl-1-(piperidin-4-yl)-1H-pyrazol-4-yl)amino)-5-(trifluoromethyl)pyrimidin-4-yl)-4-methyl-3,4-dihydrothieno[2,3-f][1,4]thiazepin-5(2H)-one 1,1-dioxide]"
5,≤ 5 nM,"CCN1CCc2cc(Nc3ncc(C(F)(F)F)c(-c4cc5c(s4)C(=O)N(C4CC4)CCS5(=O)=O)n3)c(C(C)C)cc2C1 [Example 267, 4-cyclopropyl-7-(2-((2-ethyl-7-isopropyl-1,2,3,4-tetrahydroisoquinolin-6-yl)amino)-5-(trifluoromethyl)pyrimidin-4-yl)-3,4-dihydrothieno[2,3-f][1,4]thiazepin-5(2H)-one 1,1-dioxide]"
6,> 100 nM,"Cc1nn(C2CCNCC2)cc1Nc1ncc(C(F)(F)F)c(-c2cc3c(s2)C(=O)NCCS3(=O)=O)n1 [Example 165, 7-(2-((3-methyl-1-(piperidin-4-yl)-1H-pyrazol-4-yl)amino)-5-(trifluoromethyl)pyrimidin-4-yl)-3,4-dihydrothieno[2,3-f][1,4]thiazepin-5(2H)-one 1,1-dioxide]"
7,≤ 5 nM,"CCN1CCc2cc(Nc3ncc(C(F)(F)F)c(-c4cc5c(s4)C(=O)N(C)CCS5(=O)=O)n3)c(C)cc2C1 [Example 185, 7-(2-((2-ethyl-7-methyl-1,2,3,4-tetrahydroisoquinolin-6-yl)amino)-5-(trifluoromethyl)pyrimidin-4-yl)-4-methyl-3,4-dihydrothieno[2,3-f][1,4]thiazepin-5(2H)-one 1,1-dioxide]"
8,≤ 5 nM,"CCc1cc2c(cc1Nc1ncc(C(F)(F)F)c(-c3cc4c(s3)C(=O)N(C3CCC3)CCS4(=O)=O)n1)CNCC2 [Example 221, 4-cyclobutyl-7-(2-((6-ethyl-1,2,3,4-tetrahydroisoquinolin-7-yl)amino)-5-(trifluoromethyl)pyrimidin-4-yl)-3,4-dihydrothieno[2,3-f][1,4]thiazepin-5(2H)-one 1,1-dioxide]"

row,SMILES,IC50
1,"CN1[C@@H]2CC[C@H]1CN(c1ccc(Nc3ncc(C(F)(F)F)c(-c4cc5c(s4)C(=O)N(C4CC4)CCS5(=O)=O)n3)c(C3CC3)c1)C2 [Example 313, 4-cyclopropyl-7-(2-((2-cyclopropyl-4-((1R,5S)-8-methyl-3,8-diazabicyclo[3.2.1]octan-3-yl)phenyl)amino)-5-(trifluoromethyl)pyrimidin-4-yl)-3,4-dihydrothieno[2,3-f][1,4]thiazepin-5(2H)-one 1,1-dioxide]",≤ 5 nM

# Source: patent publication US20250144094A1 (Erasca, Inc., priority 2021, published 2025)
